Data taken from patent publication US20250340551A1, “SMALL MOLECULE MODULATORS OF STAT6” (Gilead Sciences, Inc., priority 2024, published 2025).

How the values were obtained:
[1] = tested on: Eotaxin-3 (CCL26) release in human whole blood stimulated with IL-4; test: Human whole blood eotaxin-3 assay (IL-4 stimulated, Eotaxin-3 release); type: cell-based; settings: Homo sapiens; for EC50: Hec50, 48 h; for Emax: 48 h
In short: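 Lithium-heparin blood preincubated 2 h at 37° C with 4-fold compound dilutions (0.5% DMSO, triplicates), then stimulated with 400 pM recombinant human IL-4 for 48 h. Eotaxin-3 in plasma supernatant measured by MSD immunoassay.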

human STAT6 = human STAT6 (Homo sapiens (Human), UniProt P42226); test: Surface plasmon resonance assay (Biacore 8K, binding to immobilized STAT6); settings: human STAT6 aa122-658, N-terminal His-tag, CM5 chip, 25° C.; geometric mean; read-out: STAT6 SPR Kd
In short: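 Run at 25° C with His-tagged STAT6 aa122-658 (insect-cell expressed) amine-coupled to a CM5 chip, reference-subtracted, in PBS-P+ with 2% DMSO. Multi-cycle kinetics: 60 sec. contact, up to 300 sec. dissociation. Affinity fitted from late report-point binding isotherms, with Rmax both free and fixed to theoretical 1:1.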

Sequence of human STAT6 (P42226 122-658): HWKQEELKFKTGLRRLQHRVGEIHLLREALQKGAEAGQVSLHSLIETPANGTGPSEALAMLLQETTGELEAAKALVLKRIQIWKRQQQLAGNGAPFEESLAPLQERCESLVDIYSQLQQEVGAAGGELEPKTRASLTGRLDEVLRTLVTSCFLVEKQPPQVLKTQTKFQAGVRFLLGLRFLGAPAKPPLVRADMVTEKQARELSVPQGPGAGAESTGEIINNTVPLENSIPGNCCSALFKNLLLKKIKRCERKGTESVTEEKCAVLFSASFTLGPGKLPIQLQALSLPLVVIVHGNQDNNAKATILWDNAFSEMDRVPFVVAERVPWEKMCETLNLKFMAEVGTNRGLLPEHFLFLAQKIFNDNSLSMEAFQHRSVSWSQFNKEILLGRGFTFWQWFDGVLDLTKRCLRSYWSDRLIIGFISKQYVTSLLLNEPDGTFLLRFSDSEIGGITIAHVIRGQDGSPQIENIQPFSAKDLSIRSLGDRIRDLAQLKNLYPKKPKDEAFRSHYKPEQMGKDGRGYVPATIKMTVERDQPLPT

Compound	EC50 [1] [µM]	Kd (human STAT6) [nM]	Emax [1] [%]
CNc1ccc(-c2ccnc3c2cc([C@@H](C)N2CCC(c4ccc(C(=O)N(C)C)cc4)CC2)n3C)c(C#N)n1 [Example 1af40, (R)-4-(1-(1-(4-(2-cyano-6-(methyl-amino)pyridin-3-yl)-1-methyl-1H-pyrrolo[2,3-b]pyridin-2-yl)ethyl)piperidin-4-yl)-N,N-dimethylbenzamide]	44.4	2190	
Cc1cc(C(=O)N(C)C)ccc1C1=CCN([C@@H](C)c2cc3c(-c4ccc(N)nc4C#N)ccnc3n2C)CC1 [Example 1af44, (S)-4-(1-(1-(4-(6-Amino-2-cyanopyridin-3-yl)-1-methyl-1H-pyrrolo[2,3-b]-pyridin-2-yl)ethyl)-1,2,3,6-tetrahydropyridin-4-yl)-N,N,3-trimethylbenzamide]	15.9	352	
Cc1cc(C(=O)N(C)C)ccc1C1=CCN([C@H](C)c2cc3c(-c4ccc(N)nc4C#N)ccnc3n2C)CC1 [Example 1af45, (R)-4-(1-(1-(4-(6-amino-2-cyanopyridin-3-yl)-1-methyl-1H-pyrrolo[2,3-b]pyridin-2-yl)ethyl)-1,2,3,6-tetrahydropyridin-4-yl)-N,N,3-trimethylbenzamide]	0.041	21.6	
[2H]C([2H])([2H])N(C(=O)c1ccc(C2=CCN([C@H](C)c3cc4c(-c5ccc(N)cn5)ccnc4n3C)CC2)cc1)C([2H])([2H])[2H] [Example 1af46, (R)-4-(1-(1-(4-(5-amino-pyridin-2-yl)-1-methyl-1H-pyrrolo[2,3-b]pyridin-2-yl)ethyl)-1,2,3,6-tetrahydro-pyridin-4-yl)-N,N-bis(methyl-d3)benzamide]	0.76	48.3	
CN(C)C(=O)c1ccc(C2CCN(Cc3cc4c(-c5ccc(N)nc5)ccnc4n3C)CC2)cc1 [Example 1k3, 4-[1-[[4-(6-Amino-3-pyridyl)-1-methyl-pyrrolo[2,3-b]pyridin-2-yl]methyl]-4-piperidyl]-N,N-dimethyl-benzamide]	6	11.4	
CN(C)C(=O)c1ccc(C2CCN(Cc3cc4c(-c5ccc(N)c(C(=O)O)c5)ccnc4n3C)CC2)cc1 [Example 1k6, 2-Amino-5-[2-[[4-[4-(dimethylcarbamoyl)phenyl]-1-piperidyl]methyl]-1-methyl-pyrrolo[2,3-b]pyridin-4-yl]benzoic acid]		9.05	57
Cc1cc(-c2ccnc3c2cc(CN2CCC(c4ccc(C(=O)N(C)C)cc4)CC2)n3C)cnc1N [Example 1k11, 4-[1-[[4-(6-Amino-5-methyl-3-pyridyl)-1-methyl-pyrrolo[2,3-b]pyridin-2-yl]methyl]-4-piperidyl]-N,N-dimethyl-benzamide]	6.59	30.5	
CN(C)C(=O)c1ccc(C2CCN(Cc3cc4c(-c5cnc(N)nc5)ccnc4n3C)CC2)cc1 [Example 1k13, 4-[1-[[4-(2-Aminopyrimidin-5-yl)-1-methyl-pyrrolo[2,3-b]pyridin-2-yl]methyl]-4-piperidyl]-N,N-dimethyl-benzamide]	14.2	87.7	
CN(C)C(=O)c1ccc(C2CCN(Cc3cc4c(-c5cnc(N)c(F)c5)ccnc4n3C)CC2)cc1 [Example 1k14, 4-[1-[[4-(6-Amino-5-fluoro-3-pyridyl)-1-methyl-pyrrolo[2,3-b]pyridin-2-yl]methyl]-4-piperidyl]-N,N-dimethyl-benzamide]		37.2	65.6
COc1nc(N)ccc1-c1ccnc2c1cc(CN1CCC(c3ccc(C(=O)N(C)C)cc3)CC1)n2C [Example 1k22, 4-[1-[[4-(6-Amino-2-methoxy-3-pyridyl)-1-methyl-pyrrolo[2,3-b]pyridin-2-yl]methyl]-4-piperidyl]-N,N-dimethyl-benzamide]	1.49	22.3	
CN(C)C(=O)c1ccc(C2CCN(Cc3cc4c(-c5ccc(N)nc5C#N)ccnc4n3C)CC2)cc1 [Example 1k43, 4-[1-[[4-(6-Amino-2-cyano-3-pyridyl)-1-methyl-pyrrolo[2,3-b]pyridin-2-yl]methyl]-4-piperidyl]-N,N-dimethyl-benzamide]	0.871	31.4	
CNc1cc(C)c(-c2ccnc3c2cc(CN2CCC(c4ccc(C(=O)N(C)C)cc4)CC2)n3C)cn1 [Example 1k51, N,N-Dimethyl-4-[1-[[1-methyl-4-[4-methyl-6-(methylamino)-3-pyridyl]pyrrolo[2,3-b]pyridin-2-yl]methyl]-4-piperidyl]benzamide]		80.5	43
CN(C)C(=O)c1ccc(C2CCN(Cc3cc4c(-c5ccc(N)cn5)ccnc4n3C)CC2)cc1 [Example 1k66, 4-(1-((4-(5-Aminopyridin-2-yl)-1-methyl-1H-pyrrolo[2,3-b]pyridin-2-yl)methyl)piperidin-4-yl)-N,N-dimethylbenzamide]	6.62	18.8	
CNc1ccc(-c2ccnc3c2cc(CN2CCC(c4ccc(C(=O)N(C)C)cc4)CC2)n3C)nc1 [Example 1k69, N,N-Dimethyl-4-(1-((1-methyl-4-(5-(methylamino)pyridin-2-yl)-1H-pyrrolo[2,3-b]pyridin-2-yl)methyl)piperidin-4-yl)benzamide]		53.5	72
CNc1ccc(-c2ccnc3c2cc(CN2CCC(c4ccc(C(=O)N(C)C)cc4)CC2)n3C)nn1 [Example 1k71, N,N-Dimethyl-4-[1-[[1-methyl-4-[6-(methylamino)pyridazin-3-yl]pyrrolo[2,3-b]pyridin-2-yl]methyl]-4-piperidyl]benzamide]		22.6	78.8
Cc1nc(-c2ccnc3c2cc(CN2CCC(c4ccc(C(=O)N(C)C)cc4)CC2)n3C)ccc1N [Example 1k73, 4-[1-[[4-(5-Amino-6-methyl-2-pyridyl)-1-methyl-pyrrolo[2,3-b]pyridin-2-yl]methyl]-4-piperidyl]-N,N-dimethyl-benzamide]	7.61	50.3	
CNc1ccc(-c2ccnc3c2cc(CN2CCC(c4ccc(C(=O)N(C)C)cc4F)CC2)n3C)nc1 [Example 1o23, 3-Fluoro-N,N-dimethyl-4-[1-[[1-methyl-4-[5-(methylamino)-2-pyridyl]pyrrolo[2,3-b]pyridin-2-yl]methyl]-4-piperidyl]benzamide]	2.46	30.6	
CNc1ccc(-c2ccnc3c2cc([C@H](C)N2CCC(c4ccc(C(=O)N(C)C)cc4)CC2)n3C)nc1 [Example 1o24, (S)—N,N-dimethyl-4-(1-(1-(1-methyl-4-(5-(methylamino)pyridin-2-yl)-1H-pyrrolo[2,3-b]pyridin-2-yl)ethyl)piperidin-4-yl)benzamide]	0.444	31.2	
CNc1ccc(-c2ccnc3c2cc(CN2CC[C@@H](c4ccc(C(=O)N(C)C)cc4)C[C@H]2C)n3C)nc1 [Example 1o26, N,N-dimethyl-4-((2R,4R)-2-methyl-1-((1-methyl-4-(5-(methylamino)-pyridin-2-yl)-1H-pyrrolo[2,3-b]pyridin-2-yl)methyl)piperidin-4-yl)benzamide]	0.458	32.4	
CNc1ccc(-c2ccnc3c2cc(CN2CCN(c4ccc(C(=O)N(C)C)cc4)CC2)n3C)nn1 [Example 1p1, N,N-Dimethyl-4-[4-[[1-methyl-4-[6-(methylamino)pyridazin-3-yl]pyrrolo[2,3-b]pyridin-2-yl]methyl]piperazin-1-yl]benzamide]	76	329	
